Test results as given in PMC5958115, “A novel small molecule chaperone of rod opsin and its potential therapy for retinal degeneration” (Nature Communications, 2018).
Where two headings read alike, the source gives them in different places.

Columns and labels:
rod opsin = molecular target: T1, rod opsin (Mus musculus, UniProt P15409); experiment: cAMP quantification assay in NIH3T3-(WT-opsin/GFP) cells with forskolin; assay type: cell-based
T1 construct: expressed in transfected cells
Procedure: NIH3T3-(Opsin/GFP) and NIH3T3-(GFP) were plated in two 96-well plates at a density of 50,000 cells per well in 100 µL of DMEM medium containing 10% FBS and antibiotics. After 24 h, cells were washed with Krebs Ringer bicarbonate buffer containing glucose (KRBG), and incubated with KRBG buffer containing 100 µM cAMP specific phosphodiesterase inhibitor, Ro 20–1724 (Tocris, UK) at RT for 10 min. […] While one plate then was wrapped with aluminum foil, the second plate was exposed to regular room light. Both plates were kept in a cell culture incubator for 15 min at 37 °C in 5% CO2. Levels of accumulated cAMP were detected with the Catchpoint cAMP fluorescent assay kit (Molecular Devices, Sunnyvale, CA USA) and the fluorescence with excitation/emission at 530/590 nm was read with a Flexstation3 plate reader (Molecular Devices) as described in the manufacturer’s protocol.

mouse P23H-opsin mutant = mouse P23H-opsin mutant (Mus musculus, UniProt P15409, P23H); experiment: β-Gal fragment complementation assay: rescue of P23H opsin transport from ER to plasma membrane, U2OS(PLC-EA/P23H-PK) cells; assay type: cell-based; conditions: for β-Gal fragment complementation assay Activity score (%) Max (fit) / Efficacy: 24 h, 5 µM 9-cis-retinal = 100%, from curve fitting; for dependence of activity on light: cells exposed to light vs dark; for Efficacy (%): normalized to 5 µM 9-cis-retinal
Description: U2OS(PLC-EA/P23H-PK) cells. A U2OS stable cell line was generated by DiscoveRx, Inc. (Fremont, CA, USA) for the β-Gal fragment complementation assay used in the small-molecule HTS for rescue of P23H-opsin transport. U2OS cells that continually express P23H-PK and PLC-EA fusion proteins were generated. Briefly, this small subunit of β-Gal (PK fragment) was fused to the C-terminal of the mouse P23H-opsin mutant, while the large EA fragment, a subunit of β-Gal, was fused with PLC, a plasma membrane-anchored peptide. Both constructs were subcloned by DicoveRx, Inc. and transferred into U2OS cells by viral infections. Positive clones were selected under treatment with hygromycin and geneticin.
Briefly, U2OS(PLC-EA /P23H-PK) cells were suspended in assay medium at 3 × 10^5 cells mL^−1. The cell suspension was dispensed into 384-well plates (Greiner Bio-one, Monroe, NC, USA) at 20 µL per well, with a Multidrop dispenser (Thermo Scientific, Waltham, MA, USA). Plates with cells then were centrifuged at 200×g for 15 s before incubation at 37 °C with 5% CO2. Plates were removed 24 h later for treatment with tested compounds. A total of 248 plates containing 79,080 compounds from three small-molecule libraries were paired with an equal number of assay plates with cultured cells. Owing to a limited capacity, these plates were assayed in seven batches. An average of 56.3 nL of 10 mM compound in DMSO was dispensed into each well from column 3 to 22 of paired assay plates using a 50 nL 384-pintool system, such that the final concentration of each compound was 22.52 µM on average. […] Each assay plate was shaken for 5 s before further incubation at 37 °C with 5% CO2. After 24 h, assay plates were removed, and each well was incubated with 25 µL of 1× Gal-Screen assay buffer (1:24 substrate-buffer ratio). Assay plates were incubated in the dark for 60–90 min, and luminescence was read from each assay plate with an Envision microplate reader (PerkinElmer) during a 0.1 s per well integration time. The mean and s.d. of readouts in column 2 of each plate were calculated as Mean0% and SD0%, whereas the average and s.d. of readouts in column 23 were calculated as Mean100% and SD100%. Eq. 1: Activity scores (%) = (RLUcp − Mean0%)/(Mean100% − Mean0%) × 100%, where RLUcp is the relative luminescence unit derived for cells treated with a compound. Eq. 2: Z′-factor = 1–3 × (SD0% + SD100%)/(Mean100% − Mean0%)[32]; Eq. 3: signal-to-background (S/B) ratio = Mean100%/Mean0%. Activities of all tested compounds were registered with their compound ID by GeneData Screener (Genedata, Basel, Switzerland) and Pipeline Pilot software (Accelrys, San Diego, CA, USA). Hits, cherry-picked from a separate stock dose-dependent activity test, were selected with an activity score cutoff at 20%. Activity of each hit was tested again with the β-Gal fragment complementation assay in a 10-dose series with each dose tested in triplicate. The 10 doses tested were 80, 40, 20, 10, 5, 2.5, 1.25, 0.625, 0.313, and 0.156 µM. Dose-dependent curves of each hit compound were fitted with GeneData and Origin software.
Detailed synthetic steps are described in Supplementary Note and Supplementary Fig. 9. […] YC-002-YC-021 were purchased from commercial vendors including Enamine LLC (Monmouth Jct., NJ, USA), Matrix Scientific (Columbia, SC, USA) and Tokyo Chemical Industry Co., Ltd. (Portland, OR, USA). […] Activities of YC compounds were tested with the β-Gal fragment complementation assay, as described in a prior section. All YC compounds were tested at 10 doses, each in triplicate: 80, 40, 20, 10, 5, 2.5, 1.25, 0.625, 0.313, and 0.156 µM.

bovine opsin = molecular target: T2, bovine opsin (Bos taurus, UniProt P02699); experiment: Isorhodopsin pigment regeneration in ROS disc membranes (absorbance at 487 nm); assay type: biochemical; conditions: for competition with 9-cis-retinal in the chromophore-binding pocket: added simultaneously or sequentially with 9-cis-retinal
T2 construct: ROS membranes were isolated from bovine retinas under dim red light; from tissue; host or cells: bovine retina, rod outer segment (ROS) disc membranes, bleached with hydroxylamine
T2 sequence (P02699 whole entry): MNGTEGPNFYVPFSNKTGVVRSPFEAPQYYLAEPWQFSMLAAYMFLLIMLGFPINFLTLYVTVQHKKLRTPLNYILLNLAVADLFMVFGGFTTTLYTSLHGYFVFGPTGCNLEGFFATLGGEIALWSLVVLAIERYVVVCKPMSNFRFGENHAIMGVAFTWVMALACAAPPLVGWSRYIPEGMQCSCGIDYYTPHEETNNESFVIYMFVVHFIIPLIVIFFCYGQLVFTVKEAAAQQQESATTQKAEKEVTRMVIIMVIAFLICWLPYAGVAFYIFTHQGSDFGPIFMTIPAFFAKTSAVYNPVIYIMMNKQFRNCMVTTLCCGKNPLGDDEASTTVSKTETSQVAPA
Procedure: ROS membranes containing opsin were suspended in buffer composed of 20 mM BTP, pH 7.5, and 100 mM NaCl at a final concentration of 2.5 µM. […] Membranes then were solubilized with 20 mM DDM for 10 min at RT and UV–visible spectra of these samples were measured. To follow the kinetics of isorhodopsin regeneration, opsin membranes were treated with 0, 20, or 60 µM YC-001 for 15 min at RT. […] UV–visible spectra of the samples were measured every 2 min until 2 h of reaction time at RT. Each condition was repeated three times. The time course of isorhodopsin regeneration was fitted by a second-order exponential decay and apparent half-lives were obtained at the time when reaction reached half of the end-point product.
Alternatively, opsin incubated with the above ligands was purified by 1D4-immunoaffinity chromatography. […] After washing, opsin samples were eluted by addition of 1D4 peptide ([…]) to the above buffer and their spectra were measured with a UV–visible spectrophotometer.
To test whether YC-001 stabilizes rod opsin, opsin samples (2.5 µM) were incubated with or without 10 µM YC-001 for 15 min, followed by solubilization in 20 mM DDM. […] UV–visible spectra of these samples then were measured.

[1] = 24 h preincubation, activity standardized to 5 µM 9-cis-retinal as 100%, Hill fit, read-out: β-Gal fragment complementation assay Activity score (%) EC50

fold increase in the EC50 of 9-cis-retinal (rod opsin; 40 μM YC-001 co-treatment vs 9-cis-retinal alone) [fold]	EC50 (rod opsin; 9-cis-retinal alone, under light, read-out: EC50, cAMP levels) [µM]	β-Gal fragment complementation assay Activity score (%) Max (fit) / Efficacy (mouse P23H-opsin mutant) [%]	EC50 (mouse P23H-opsin mutant; [1]) [µM]	Structure (SMILES)	dependence of activity on light (mouse P23H-opsin mutant)	competition with 9-cis-retinal in the chromophore-binding pocket (bovine opsin)	activity in rescuing P23H-opsin transport (in words) (mouse P23H-opsin mutant)	EC50 (rod opsin; YC-001 alone, dark or light, read-out: EC50, increase in cAMP levels) [µM]	EC50 (rod opsin; YC-001 with 1 μM 9-cis-retinal, under light, read-out: EC50, increase in cAMP levels) [µM]	half-life of rod opsin aging at RT (bovine opsin; 10 µM YC-001 vs opsin alone, 0-6 h)	total amount of regenerated isorhodopsin pigment at the end of the reaction (bovine opsin; increasing YC-001, sequential 9-cis-retinal)	reversibility of interaction with opsin (bovine opsin; opsin/isorhodopsin purification after treatment)	IC50 (bovine opsin; read-out: IC50, regenerated isorhodopsin) [µM]	efficacy, % of the control activity score (mouse P23H-opsin mutant; HTS hits, variability between experiments)	effect of co-treatment with 9-cis-retinal (mouse P23H-opsin mutant; YC-001 dose series together with 5 µM 9-cis-retinal)	Efficacy (%) (mouse P23H-opsin mutant; modifications at C4)	EC50 (mouse P23H-opsin mutant; modifications linked to C3 of the furan-2(5H)-one ring, 10 doses 0.156-80 µM, read-out: Potency EC50) [µM]	Efficacy (%) (mouse P23H-opsin mutant; modifications of the furan-2(5H)-one ring)	Efficacy (%) (mouse P23H-opsin mutant; more than one site modified)	time to maximum activity (mouse P23H-opsin mutant; time course, Fig. 1f) [h]
3	0.0757	159	2.7	CC1=C(/C=C/C(C)=C\C=C\C(C)=C\C=O)C(C)(C)CCC1 [9-cis-retinal, reference compound]	required that cells be incubated in the dark	–	–	–	–	–	–	–	–	–	–	–	–	–	–	–
–	–	98.2	3.09	O=C(CCCCCN1C(=O)c2cccc3cccc(c23)C1=O)NO [Scriptaid, reference compound]	–	does not compete with 9-cis-retinal	strong activity in rescuing P23H opsin transport	–	–	–	–	–	–	–	–	–	–	–	–	–

Structure (SMILES)	fold increase in the EC50 of 9-cis-retinal (rod opsin; 40 μM YC-001 co-treatment vs 9-cis-retinal alone) [fold]	EC50 (rod opsin; 9-cis-retinal alone, under light, read-out: EC50, cAMP levels) [µM]	β-Gal fragment complementation assay Activity score (%) Max (fit) / Efficacy (mouse P23H-opsin mutant) [%]	EC50 (mouse P23H-opsin mutant; [1]) [µM]	dependence of activity on light (mouse P23H-opsin mutant)	competition with 9-cis-retinal in the chromophore-binding pocket (bovine opsin)	activity in rescuing P23H-opsin transport (in words) (mouse P23H-opsin mutant)	EC50 (rod opsin; YC-001 alone, dark or light, read-out: EC50, increase in cAMP levels) [µM]	EC50 (rod opsin; YC-001 with 1 μM 9-cis-retinal, under light, read-out: EC50, increase in cAMP levels) [µM]	half-life of rod opsin aging at RT (bovine opsin; 10 µM YC-001 vs opsin alone, 0-6 h)	total amount of regenerated isorhodopsin pigment at the end of the reaction (bovine opsin; increasing YC-001, sequential 9-cis-retinal)	reversibility of interaction with opsin (bovine opsin; opsin/isorhodopsin purification after treatment)	IC50 (bovine opsin; read-out: IC50, regenerated isorhodopsin) [µM]	efficacy, % of the control activity score (mouse P23H-opsin mutant; HTS hits, variability between experiments)	effect of co-treatment with 9-cis-retinal (mouse P23H-opsin mutant; YC-001 dose series together with 5 µM 9-cis-retinal)	Efficacy (%) (mouse P23H-opsin mutant; modifications at C4)	EC50 (mouse P23H-opsin mutant; modifications linked to C3 of the furan-2(5H)-one ring, 10 doses 0.156-80 µM, read-out: Potency EC50) [µM]	Efficacy (%) (mouse P23H-opsin mutant; modifications of the furan-2(5H)-one ring)	Efficacy (%) (mouse P23H-opsin mutant; more than one site modified)	time to maximum activity (mouse P23H-opsin mutant; time course, Fig. 1f) [h]
O=C1OCC(c2ccc(Cl)s2)=C1c1cccs1 [YC-001]	–	–	310	8.7	not affected	competing with 9-cis-retinal in a short timeframe	–	8.22	29.9	significantly longer half-life	did not affect	reversible	11.4	150–310%	No additive effect	248	8.39	248	248	≤ 15
